Laboratory results published in publication PMC5011342, “A high throughput drug screening assay to identify compounds that promote oligodendrocyte differentiation using acutely dissociated and purified oligodendrocyte precursor cells” (BMC Research Notes, 2016).
Where two headings read alike, the source gives them in different places.

How the values were obtained:
[1] = tested on: acutely dissociated and purified rat OPCs; assay: Acute OL differentiation assay (MBP expression/cell, immunofluorescent image quantification); format: cell-based; settings: Rattus norvegicus, sheet "All OLga data"
Method in brief: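 Oligodendrocyte precursor cells were enriched from P6-P7 Sprague–Dawley rat brains by immunopanning (RAN-2 and GalC depletion, O4 selection), plated at 5000 cells/well in serum-free, mitogen-free differentiation media on PDL/laminin 96-well view plates, centrifuged at 200×g, and pre-incubated 1–2 h before test compounds were added in quadruplicate. On DIV4, cells were fixed, stained for MBP and DAPI, imaged automatically, and MBP expression per cell was quantified.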

[2] = tested on: expanded OPCs; assay: cells; settings: for viability at 0.1 µM / viability at 1 µM / viability at 10 µM: Rattus norvegicus, 72 h; for 0.1 µM (% DMSO) / 1 µM (% DMSO) / 10 µM (% DMSO): alamarBlue viability of expanded OPCs, relative to DMSO control; for 0.1 µM (% DMSO): compound at 0.1 µM; for 1 µM (% DMSO): compound at 1 µM; for 10 µM (% DMSO): compound at 10 µM
Method in brief: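 Expanded OPCs seeded at 10,000 cells/well in differentiation media, then exposed to NCC library compounds at 10, 1 and 0.1 µM (quadruplicate, 0.1% DMSO) for three days. Viability read as alamarBlue fluorescence (560/590 nm) after 4 h at 37 °C; tunicamycin 5 ng/ml served as toxicity control.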

[3] = test compound at 2 uM, NCC library screen, relative to quetiapine, read-out: 2 uM (% Quet)
[4] = test compound at 10 uM, NCC library screen, relative to quetiapine, read-out: 10 uM (% Quet)
[5] = read-out: 0.1 µM (% DMSO), alamarBlue viability, NCC library compound at 0.1 µM, sheet "All Tox data"
[6] = read-out: 1 µM (% DMSO), alamarBlue viability, NCC library compound at 1 µM, sheet "All Tox data"
[7] = read-out: 10 µM (% DMSO), alamarBlue viability, NCC library compound at 10 µM, sheet "All Tox data"
[8] = 2 uM test compound, relative to quetiapine, read-out: OL differentiation, 2 uM (% Quet)
[9] = 10 uM test compound, relative to quetiapine, read-out: OL differentiation, 10 uM (% Quet)
[10] = read-out: 0.1 µM (% DMSO), alamarBlue viability of expanded OPCs, compound at 0.1 µM, sheet All Tox data
[11] = read-out: 1 µM (% DMSO), alamarBlue viability of expanded OPCs, compound at 1 µM, sheet All Tox data
[12] = read-out: 10 µM (% DMSO), alamarBlue viability of expanded OPCs, compound at 10 µM, sheet All Tox data
[13] = 0.4 uM test compound, relative to quetiapine, read-out: OL differentiation, 0.4 uM (% Quet)
[14] = test compound at 2 uM, MBP expression relative to quetiapine, NCC library screen, read-out: 2 uM (% Quet)
[15] = test compound at 10 uM, MBP expression relative to quetiapine, NCC library screen, read-out: 10 uM (% Quet)

Structure (SMILES) | activation at 2 µM [1, 3] [%] | activation at 10 µM [1, 4] [%] | viability at 0.1 µM [2, 5] [%] | viability at 1 µM [2, 6] [%] | viability at 10 µM [2, 7] [%] | activation at 2 µM [1, 8] [%] | activation at 10 µM [1, 9] [%] | viability at 0.1 µM [2, 10] [%] | viability at 1 µM [2, 11] [%] | viability at 10 µM [2, 12] [%] | other results
O=C1C(CC[S+]([O-])c2ccccc2)C(=O)N(c2ccccc2)N1c1ccccc1 (stereo not drawn) [Sulfinpyrazone] | -3.8 | -6.8 | 88.8 | 92.9 | 88.2 | – | – | – | – | – | –
Cc1noc(NS(=O)(=O)c2ccc(N)cc2)c1C [Sulfisoxazole] | -3.5 | 7.6 | 93.5 | 99.1 | 103 | – | – | – | – | – | –
CC1=C(CC(=O)O)c2cc(F)ccc2/C1=C\c1ccc([S+](C)[O-])cc1 (stereo not drawn) [Sulindac] | 0.6 | -11.2 | – | – | – | – | – | – | – | – | 0.1 µM (% DMSO) [2]: 90.8 % DMSO; 1 µM (% DMSO) [2]: 94.4 % DMSO; 10 µM (% DMSO) [2]: 90.3 % DMSO
CCN1CCCC1CNC(=O)c1cc(S(N)(=O)=O)ccc1OC (stereo not drawn) [Sulpiride] | – | – | – | – | – | -9.7 | 6 | 105 | 116 | 115 | –
CCN1CCCC1CNC(=O)c1cc(S(=O)(=O)CC)ccc1OC (stereo not drawn) [Sultopride] | – | – | – | – | – | 7.7 | 0 | 93.7 | 89.8 | 96.2 | –
CNS(=O)(=O)Cc1ccc2[nH]cc(CCN(C)C)c2c1 [Sumatriptan] | – | – | 95.1 | 98.2 | 92.1 | 69.1 | 84.6 | – | – | – | –
CNCC(O)c1ccc(O)cc1 (stereo not drawn) [Synephrine] | -7.3 | 2.8 | 85.8 | 94.3 | 93.4 | – | – | – | – | – | –
Nc1c2c(nc3ccccc13)CCCC2 [Tacrine] | – | – | – | – | – | -10.2 | 2.8 | 80.5 | 80 | 77.8 | –
C=CC[C@@H]1/C=C(\C)C[C@H](C)C[C@H](OC)[C@H]2O[C@@](O)(C(=O)C(=O)N3CCCC[C@H]3C(=O)O[C@H](/C(C)=C/[C@@H]3CC[C@@H](O)[C@H](OC)C3)[C@H](C)[C@@H](O)CC1=O)[C@H](C)C[C@@H]2OC [Tacrolimus] | – | – | – | – | – | -39.9 | -53.9 | 94.6 | 102 | 109 | –
CN1CC(=O)N2[C@H](c3ccc4c(c3)OCO4)c3[nH]c4ccccc4c3C[C@@H]2C1=O [Tadalafil] | – | – | – | – | – | 21.4 | -16 | 99.2 | 93 | 93.9 | –
O=C1c2c(O)cc(O)cc2OC(c2ccc(O)c(O)c2)C1O (stereo not drawn) [Taxifolin] | – | – | – | – | – | -1.7 | -59 | 96.4 | 93.7 | 88.7 | –
O=c1[nH]c(=O)n(C2CCCO2)cc1F (stereo not drawn) [Tegafur] | – | – | – | – | – | -23.9 | -28 | 88.4 | 92.6 | 99.3 | –
[H]/N=C(/NCCCCC)N/N=C/c1c[nH]c2ccc(OC)cc12 [Tegaserod] | – | – | 88.5 | 33.1 | 11.5 | – | – | – | – | – | activation at 0.08 µM ([1]; 0.08 uM test compound, relative to quetiapine, read-out: OL differentiation, 0.08 uM (% Quet)): -15.2%; activation at 0.4 µM [1, 13]: -63.1%
CC[C@H]1OC(=O)[C@H](C)C(=O)[C@H](C)[C@@H](O[C@@H]2O[C@H](C)C[C@H](N(C)C)[C@H]2O)[C@](C)(OC)C[C@@H](C)C(=O)[C@H](C)[C@H]2N(CCCCn3cnc(-c4cccnc4)c3)C(=O)O[C@]12C [Telithromycin] | 17.7 | 10.4 | 98.4 | 105 | 94 | – | – | – | – | – | –
CCCc1nc2c(C)cc(-c3nc4ccccc4n3C)cc2n1Cc1ccc(-c2ccccc2C(=O)O)cc1 [Telmisartan] | -6.1 | -61.8 | 95.6 | 82.3 | 53.3 | – | – | – | – | – | –
Cn1nnc2c(C(N)=O)ncn2c1=O [Temozolomide] | – | – | – | – | – | -10.2 | -8.5 | 105 | 94.7 | 100 | –
COc1cc2nc(N3CCN(C(=O)C4CCCO4)CC3)nc(N)c2cc1OC (stereo not drawn) [Terazosin] | – | – | – | – | – | -2.4 | 8.7 | 81.1 | 80.8 | 78.7 | activation at 2 µM [1, 14]: -10.8%; activation at 10 µM [1, 15]: -37.2%; 0.1 µM (% DMSO) [2]: 93.3 % DMSO; 1 µM (% DMSO) [2]: 94.6 % DMSO; 10 µM (% DMSO) [2]: 74.1 % DMSO
CN(C/C=C/C#CC(C)(C)C)Cc1cccc2ccccc12 [Terbinafine] | – | – | 90.5 | 92.2 | 11 | -91.1 | – | – | – | – | activation at 0.4 µM [1, 13]: -31.1%
CC(C)(C)NCC(O)c1cc(O)cc(O)c1 (stereo not drawn) [Terbutaline] | – | – | – | – | – | – | – | – | – | – | activation at 2 µM [1, 14]: 8.9%; activation at 10 µM [1, 15]: 12.1%; 0.1 µM (% DMSO) [2]: 91.9 % DMSO; 1 µM (% DMSO) [2]: 95.2 % DMSO; 10 µM (% DMSO) [2]: 89.9 % DMSO
O=C1CCC(N2C(=O)c3ccccc3C2=O)C(=O)N1 (stereo not drawn) [Thalidomide] | -9.1 | -26.7 | 110 | 92.4 | 99.3 | – | – | – | – | – | –
Cn1c(=O)c2[nH]cnc2n(C)c1=O [Theophylline] | -12 | 6.9 | – | – | – | – | – | – | – | – | 0.1 µM (% DMSO) [2]: 91.7 % DMSO; 1 µM (% DMSO) [2]: 95.8 % DMSO; 10 µM (% DMSO) [2]: 88.9 % DMSO
c1ccc2[nH]c(-c3cscn3)nc2c1 [Thiabendazole] | 14.9 | 36.7 | 98 | 97.1 | 109 | – | – | – | – | – | –
CSc1ccc2c(c1)N(CCC1CCCCN1C)c1ccccc1S2 (stereo not drawn) [Thioridazine] | – | – | 53.8 | 24.4 | 9.4 | – | – | – | – | – | activation at 0.08 µM ([1]; test compound at 0.08 uM, NCC library screen, relative to quetiapine, read-out: 0.08 uM (% Quet)): -4.7%; activation at 0.4 µM ([1]; test compound at 0.4 uM, NCC library screen, relative to quetiapine, read-out: 0.4 uM (% Quet)): -158%
